{
  "source": "patent US6358885B1",
  "about": "“Substituted phenylheterocyclic herbicides” (Mississippi State University, priority 1992, dated 2002)",
  "key": {"[1]": {"system": "blackgrass", "assay": "Test B preemergence/postemergence greenhouse plant response rating 0 to 10", "format": "in vivo, Alopecurus myosuroides", "settings": "0 to 10 scale", "outline": "(§1)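 Postemergence treatment of plants two to eighteen cm tall ran alongside preemergence treatment of planted seed, each using compound in a non-phytotoxic solvent.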"}, "[2]": {"system": "wild buckwheat", "assay": "Test C preemergence/postemergence greenhouse plant response rating 0 to 100", "format": "in vivo, Polygonum convolvulus", "settings": "POSTEMERGENCE", "outline": "(§2)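 Compounds in non-phytotoxic solvent went onto sandy loam before emergence (seeded one day earlier) or onto plants at the one-to-four leaf stage. Duck salad was treated via flood water (~2.5 cm, maintained) over silt loam.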"}, "[3]": {"system": "barnyardgrass", "assay": "Test C flood test plant response rating 0 to 100", "format": "in vivo, Echinochloa crus-galli", "outline": "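Compounds in non-phytotoxic solvent applied preemergence to sandy loam one day after planting, postemergence at the 1–4 leaf stage, or to ~2.5 cm floodwater over silt loam.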"}, "[4]": {"system": "wheat", "assay": "Test B preemergence/postemergence greenhouse plant response rating 0 to 10", "format": "in vivo, Triticum aestivum", "settings": "0 to 10 scale", "outline": "as §1"}, "[5]": {"system": "crabgrass", "assay": "Test B preemergence/postemergence greenhouse plant response rating 0 to 10", "format": "in vivo, Digitaria spp.", "settings": "0 to 10 scale", "outline": "as §1"}, "[6]": {"system": "duck salad", "assay": "Test C flood test plant response rating 0 to 100", "format": "in vivo, Heteranthera limosa", "outline": "as §2"}, "[7]": {"system": "sugar beet", "assay": "Test B preemergence/postemergence greenhouse plant response rating 0 to 10", "format": "in vivo, Beta vulgaris", "settings": "0 to 10 scale", "outline": "as §1"}, "[8]": {"system": "velvetleaf", "assay": "Test C preemergence/postemergence greenhouse plant response rating 0 to 100", "format": "in vivo, Abutilon theophrasti", "settings": "POSTEMERGENCE", "outline": "as §2"}, "[9]": {"system": "cotton", "assay": "Test B preemergence/postemergence greenhouse plant response rating 0 to 10", "format": "in vivo, Gossypium hirsutum", "settings": "0 to 10 scale", "outline": "as §1"}, "[10]": {"system": "pigweed", "assay": "Test C preemergence/postemergence greenhouse plant response rating 0 to 100", "format": "in vivo, Amaranthusretroflexus", "settings": "POSTEMERGENCE", "outline": "as §2"}, "[11]": {"system": "wild oat", "assay": "Test B preemergence/postemergence greenhouse plant response rating 0 to 10", "format": "in vivo, Avena fatua", "settings": "0 to 10 scale", "outline": "as §1"}, "[12]": {"system": "rice", "assay": "Test B preemergence/postemergence greenhouse plant response rating 0 to 10", "format": "in vivo, Oryza sativa", "settings": "0 to 10 scale", "outline": "as §1"}, "[13]": {"system": "cotton", "assay": "Test C preemergence/postemergence greenhouse plant response rating 0 to 100", "format": "in vivo, Gossypium hirsutum", "settings": "POSTEMERGENCE", "outline": "as §2"}, "[14]": {"system": "purple nutsedge", "assay": "Test B preemergence/postemergence greenhouse plant response rating 0 to 10", "format": "in vivo, Cyperus rotundus", "settings": "Rate 50 g/ha, 0 to 10 scale", "outline": "as §1"}, "[15]": {"system": "wheat", "assay": "Test C preemergence/postemergence greenhouse plant response rating 0 to 100", "format": "in vivo, Triticum aestivum", "settings": "POSTEMERGENCE", "outline": "as §2"}, "[16]": {"system": "lambsquarters", "assay": "Test C preemergence/postemergence greenhouse plant response rating 0 to 100", "format": "in vivo, Chenopodium album", "settings": "POSTEMERGENCE", "outline": "as §2"}, "[17]": {"system": "sorghum", "assay": "Test B preemergence/postemergence greenhouse plant response rating 0 to 10", "format": "in vivo, Sorghum bicolor", "settings": "0 to 10 scale", "outline": "as §1"}, "[18]": {"system": "corn", "assay": "Test B preemergence/postemergence greenhouse plant response rating 0 to 10", "format": "in vivo, Zea mays", "settings": "0 to 10 scale", "outline": "as §1"}, "[19]": {"settings": "POSTEMERGENCE section, flood test, Rate 1 g/ha"}, "[20]": {"settings": "Rate 16 g/ha, under POSTEMERGENCE head (flood test species)"}, "[21]": {"settings": "flood test species listed under POSTEMERGENCE, 62 g/ha, 0 to 100 scale"}},
  "data": [
    {"molecule": "C#CCN1C(=O)COc2cc(F)c(-c3nn4c(c3Cl)CCCC4)cc21", "note": "[Compound 34]", "values": [
      {"measurement": "Plant response rating, Blackgrass", "setting": "[1]; POSTEMERGENCE, Rate 10 g/ha", "value": 4},
      {"measurement": "Plant response rating, Blackgrass", "setting": "[1]; POSTEMERGENCE, Rate 50 g/ha", "value": 6},
      {"measurement": "Plant response rating, Blackgrass", "setting": "[1]; PREEMERGENCE, Rate 10 g/ha", "value": 4},
      {"measurement": "Plant response rating, Blackgrass", "setting": "[1]; PREEMERGENCE, Rate 50 g/ha", "value": 6},
      {"measurement": "Plant response rating, Wild buckwheat", "setting": "[2]; 62 g/ha, 0 to 100 scale", "value": 100},
      {"measurement": "Plant response rating (0 to 100), Wild buckwheat", "setting": "[2]; Rate 4 g/ha", "value": 50},
      {"measurement": "Plant response rating (0 to 100), Wild buckwheat", "setting": "[2]; Rate 16 g/ha", "value": 100},
      {"measurement": "Plant response rating (0 to 100), Barnyardgrass", "setting": "[3]; [19]", "value": 60},
      {"measurement": "Plant response rating (0 to 100), Barnyardgrass", "setting": "[3]; Rate 4 g/ha, under POSTEMERGENCE head (flood test species)", "value": 75},
      {"measurement": "Plant response rating (0 to 100), Barnyardgrass", "setting": "[3]; [20]", "value": 95},
      {"measurement": "Plant response rating, Barnyardgrass", "setting": "[3]; [21]", "value": 100},
      {"measurement": "Plant response rating, Wheat", "setting": "[4]; POSTEMERGENCE, Rate 10 g/ha", "value": 5},
      {"measurement": "Plant response rating, Wheat", "setting": "[4]; POSTEMERGENCE, Rate 50 g/ha", "value": 5},
      {"measurement": "Plant response rating, Wheat", "setting": "[4]; PREEMERGENCE, Rate 50 g/ha", "value": 3},
      {"measurement": "Plant response rating, Crabgrass", "setting": "[5]; POSTEMERGENCE, Rate 10 g/ha", "value": 3},
      {"measurement": "Plant response rating, Crabgrass", "setting": "[5]; POSTEMERGENCE, Rate 50 g/ha", "value": 4},
      {"measurement": "Plant response rating, Crabgrass", "setting": "[5]; PREEMERGENCE, Rate 10 g/ha", "value": 3},
      {"measurement": "Plant response rating, Crabgrass", "setting": "[5]; PREEMERGENCE, Rate 50 g/ha", "value": 9},
      {"measurement": "Plant response rating (0 to 100), Duck salad", "setting": "[6]; [19]", "value": 0},
      {"measurement": "Plant response rating (0 to 100), Duck salad", "setting": "[6]; POSTEMERGENCE section, flood test, Rate 4 g/ha", "value": 0},
      {"measurement": "Plant response rating (0 to 100), Duck salad", "setting": "[6]; [20]", "value": 0},
      {"measurement": "Plant response rating Duck salad", "setting": "[6]; [21]", "value": 40},
      {"measurement": "Plant response rating, Sugar beet", "setting": "[7]; POSTEMERGENCE, Rate 10 g/ha", "value": 10},
      {"measurement": "Plant response rating, Sugar beet", "setting": "[7]; POSTEMERGENCE, Rate 50 g/ha", "value": 10},
      {"measurement": "Plant response rating, Sugar beet", "setting": "[7]; PREEMERGENCE, Rate 50 g/ha", "value": 9},
      {"measurement": "Plant response rating, Velvetleaf", "setting": "[8]; 62 g/ha, 0 to 100 scale", "value": 100},
      {"measurement": "Plant response rating (0 to 100), Velvetleaf", "setting": "[8]; Rate 1 g/ha", "value": 100},
      {"measurement": "Plant response rating (0 to 100), Velvetleaf", "setting": "[8]; Rate 4 g/ha", "value": 100},
      {"measurement": "Plant response rating (0 to 100), Velvetleaf", "setting": "[8]; Rate 16 g/ha", "value": 100},
      {"measurement": "Plant response rating, Cotton", "setting": "[9]; POSTEMERGENCE, Rate 10 g/ha", "value": 10},
      {"measurement": "Plant response rating, Cotton", "setting": "[9]; POSTEMERGENCE, Rate 50 g/ha", "value": 10},
      {"measurement": "Plant response rating, Cotton", "setting": "[9]; PREEMERGENCE, Rate 10 g/ha", "value": 0},
      {"measurement": "Plant response rating, Cotton", "setting": "[9]; PREEMERGENCE, Rate 50 g/ha", "value": 0},
      {"measurement": "Plant response rating Pigweed", "setting": "[10]; 62 g/ha, 0 to 100 scale", "value": 100},
      {"measurement": "Plant response rating (0 to 100), Pigweed", "setting": "[10]; Rate 1 g/ha", "value": 90},
      {"measurement": "Plant response rating (0 to 100), Pigweed", "setting": "[10]; Rate 4 g/ha", "value": 100},
      {"measurement": "Plant response rating (0 to 100), Pigweed", "setting": "[10]; Rate 16 g/ha", "value": 100},
      {"measurement": "Plant response rating, Wild oat", "setting": "[11]; POSTEMERGENCE, Rate 10 g/ha", "value": 5},
      {"measurement": "Plant response rating, Wild oat", "setting": "[11]; POSTEMERGENCE, Rate 50 g/ha", "value": 5},
      {"measurement": "Plant response rating, Wild oat", "setting": "[11]; PREEMERGENCE, Rate 50 g/ha", "value": 7},
      {"measurement": "Plant response rating, Rice", "setting": "[12]; POSTEMERGENCE, Rate 10 g/ha", "value": 5},
      {"measurement": "Plant response rating, Rice", "setting": "[12]; POSTEMERGENCE, Rate 50 g/ha", "value": 5},
      {"measurement": "Plant response rating, Rice", "setting": "[12]; PREEMERGENCE, Rate 50 g/ha", "value": 2},
      {"measurement": "Plant response rating, Cotton", "setting": "[13]; 62 g/ha, 0 to 100 scale", "value": 100},
      {"measurement": "Plant response rating (0 to 100), Cotton", "setting": "[13]; Rate 1 g/ha", "value": 100},
      {"measurement": "Plant response rating (0 to 100), Cotton", "setting": "[13]; Rate 4 g/ha", "value": 100},
      {"measurement": "Plant response rating (0 to 100), Cotton", "setting": "[13]; Rate 16 g/ha", "value": 100},
      {"measurement": "Plant response rating, Nutsedge", "setting": "[14]; POSTEMERGENCE", "value": 0},
      {"measurement": "Plant response rating, Nutsedge", "setting": "[14]; PREEMERGENCE", "value": 0},
      {"measurement": "Plant response rating, Wheat", "setting": "[15]; 62 g/ha, 0 to 100 scale", "value": 50},
      {"measurement": "Plant response rating (0 to 100), Wheat", "setting": "[15]; Rate 1 g/ha", "value": 20},
      {"measurement": "Plant response rating (0 to 100), Wheat", "setting": "[15]; Rate 4 g/ha", "value": 30},
      {"measurement": "Plant response rating (0 to 100), Wheat", "setting": "[15]; Rate 16 g/ha", "value": 40},
      {"measurement": "Plant response rating Lambsquarters", "setting": "[16]; 62 g/ha, 0 to 100 scale", "value": 100},
      {"measurement": "Plant response rating (0 to 100), Lambsquarters", "setting": "[16]; Rate 1 g/ha", "value": 80},
      {"measurement": "Plant response rating (0 to 100), Lambsquarters", "setting": "[16]; Rate 4 g/ha", "value": 100},
      {"measurement": "Plant response rating (0 to 100), Lambsquarters", "setting": "[16]; Rate 16 g/ha", "value": 100},
      {"measurement": "Plant response rating, Sorghum", "setting": "[17]; POSTEMERGENCE, Rate 10 g/ha", "value": 4},
      {"measurement": "Plant response rating, Sorghum", "setting": "[17]; POSTEMERGENCE, Rate 50 g/ha", "value": 6},
      {"measurement": "Plant response rating, Sorghum", "setting": "[17]; PREEMERGENCE, Rate 50 g/ha", "value": 2},
      {"measurement": "Plant response rating, Corn", "setting": "[18]; POSTEMERGENCE, Rate 10 g/ha", "value": 4},
      {"measurement": "Plant response rating, Corn", "setting": "[18]; POSTEMERGENCE, Rate 50 g/ha", "value": 4},
      {"measurement": "Plant response rating, Corn", "setting": "[18]; PREEMERGENCE, Rate 50 g/ha", "value": 0}
    ]}
  ]
}
